20 molecules from the supplement of paper PMC11368000 can be followed below.

The subject of one test is 1516 (donor line of iPSC-derived cardiomyocytes). As to the kind of experiment: POD (EC05) for increase in beat frequency (positive chronotrope) vs vehicle; higher = less potent (higher point of departure). The following applies: exposure time: 90 min. Here is the method:
(§1)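 Human iPSC-derived cardiomyocytes from 16 donors were exposed for 90 min at 37 °C to each PFAS at 0.1, 1, 10 and 100 µM in 0.5% DMSO, 384-well plates. Kinetic Ca2+ flux (FLIPR) and Hoechst nuclei counts were normalised to vehicle wells and fitted with a hierarchical Bayesian Hill model to give donor-specific PODs: EC05 for beat-rate increase or decrease and for decay-to-rise ratio increase (QT proxy), EC95 for peak-frequency loss (asystole), EC10 for total cell number loss. 0.03 µM is the lower bound.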
`O=C(O)C=CC(F)(C(F)(F)F)C(F)(F)F` [3-(Perfluoroisopropyl)-2-propenoic_acid] came in with a POD vs vehicle of more than 100 µM.
Still for that read-out and setting: to `O=C(O)CCC(F)(F)C(F)(F)C(F)(F)C(F)(F)C(F)(F)C(F)(F)C(F)(F)F` [3-Perfluoroheptylpropanoic_acid] belongs more than 100 µM.
Molecule `O=C(O)CCC(F)(F)C(F)(F)C(F)(F)F` [3:3 Fluorotelomer carboxylic acid] returned a POD vs vehicle of more than 100 µM.
Same read-out and setting: as for `O=C(CC(=O)C(F)(F)C(F)(F)F)C(F)(F)F` [3H,3H-Perfluoro-2,4-hexanedione], the figure is more than 100 µM; as for `OCCC(F)(F)C(F)(F)C(F)(F)C(F)(F)F` [4:2 Fluorotelomer alcohol], more than 100 µM.
On the same count and under the same terms, to `O=S(=O)(O)CCC(F)(F)C(F)(F)C(F)(F)C(F)(F)F` [4:2 Fluorotelomer sulfonic acid] belongs more than 100 µM.
In turn, `O=C([O-])C(F)(F)C(F)(F)C(F)(F)C(F)(F)C(F)(F)C(F)(F)C(F)(F)F.[NH4+]` [Ammonium_perfluorooctanoate] came in with a POD vs vehicle of more than 100 µM.
In turn, `O=S(=O)(O)C(F)(F)C(F)(F)C(F)(F)C(F)(F)F` [Perfluorobutanesulfonic_acid] came in with a POD vs vehicle of more than 100 µM.
On the same count and under the same terms, to `O=C(O)C(F)(F)C(F)(F)C(F)(F)C(F)(F)C(F)(F)C(F)(F)C(F)(F)C(F)(F)C(F)(F)C(F)(F)F` [Perfluoroundecanoic_acid] belongs more than 100 µM.

In the next test the test system is 1518 (donor line of iPSC-derived cardiomyocytes). Described as above. As to conditions: exposure time: 90 min. How it is done:
as §1
As to `NC(=O)C(F)(F)C(F)(F)C(F)(F)C(F)F`, the POD vs vehicle is more than 100 µM.
`OCC(O)CC(F)(F)C(F)(F)C(F)(F)C(F)(F)C(F)(F)C(F)(F)C(F)(F)C(F)(F)F` (centres undefined) [1-(Perfluorofluorooctyl)propane-2,3-diol] had a POD vs vehicle of more than 100 µM.
On to `CC(O)C(F)(F)C(F)(F)F` (centres undefined) [1-Pentafluoroethylethanol], for which the POD vs vehicle was more than 100 µM.
The molecule `OCC(F)(F)C(F)(F)C(F)(F)C(F)F` [1H,1H,5H-Perfluoropentanol] displayed a POD vs vehicle of more than 100 µM.
Molecule `O=S(=O)(OCC(F)(F)F)C(F)(F)C(F)(F)C(F)(F)C(F)(F)F` [2,2,2-Trifluoroethyl_perfluorobutanesulfonate] showed a POD vs vehicle of more than 100 µM.
On the same count and under the same terms, as for `O=C(O)C(F)(F)C(F)(F)C(F)F` [2,2,3,3,4,4-Hexafluorobutanoic_acid], the figure is more than 100 µM; as for `NC(O)(C(F)(F)F)C(F)(F)F` [2-Aminohexafluoropropan-2-ol], more than 100 µM; as for `O=C(O)CCC(F)(F)C(F)(F)C(F)(F)C(F)(F)C(F)(F)F` [2H,2H,3H,3H-Perfluorooctanoic_acid], more than 100 µM.
Same read-out and setting: as for `O=C(O)C=C(C(F)(F)F)C(F)(F)F` [3,3-Bis(trifluoromethyl)-2-propenoic_acid], the figure is more than 100 µM.
On the same count and under the same terms, to `O=C(O)C=CC(F)(C(F)(F)F)C(F)(F)F` [3-(Perfluoroisopropyl)-2-propenoic_acid] belongs more than 100 µM; to `O=C(O)CCC(F)(F)C(F)(F)C(F)(F)C(F)(F)C(F)(F)C(F)(F)C(F)(F)F` [3-Perfluoroheptylpropanoic_acid], more than 100 µM; to `O=C(O)CCC(F)(F)C(F)(F)C(F)(F)F` [3:3 Fluorotelomer carboxylic acid], more than 100 µM.
`O=C(CC(=O)C(F)(F)C(F)(F)F)C(F)(F)F` [3H,3H-Perfluoro-2,4-hexanedione] registered a POD vs vehicle of more than 100 µM.
As for `OCCC(F)(F)C(F)(F)C(F)(F)C(F)(F)F` [4:2 Fluorotelomer alcohol], the POD vs vehicle was more than 100 µM.
Same read-out and setting: to `O=S(=O)(O)CCC(F)(F)C(F)(F)C(F)(F)C(F)(F)F` [4:2 Fluorotelomer sulfonic acid] belongs more than 100 µM; to `O=C([O-])C(F)(F)C(F)(F)C(F)(F)C(F)(F)C(F)(F)C(F)(F)C(F)(F)F.[NH4+]` [Ammonium_perfluorooctanoate], more than 100 µM.
`CN(CCO)S(=O)(=O)C(F)(F)C(F)(F)C(F)(F)C(F)(F)C(F)(F)C(F)(F)C(F)(F)C(F)(F)F` [N-Methyl-N-(2-hydroxyethyl)perfluorooctanesulfonamide]: the POD vs vehicle was more than 100 µM.
Molecule `O=S(=O)(O)C(F)(F)C(F)(F)C(F)(F)C(F)(F)F` [Perfluorobutanesulfonic_acid] registered a POD vs vehicle of more than 100 µM.
`O=C(O)C(F)(F)C(F)(F)C(F)(F)C(F)(F)C(F)(F)C(F)(F)C(F)(F)C(F)(F)C(F)(F)C(F)(F)F` [Perfluoroundecanoic_acid] returned a POD vs vehicle of more than 100 µM.

Another test concerns 1531 (donor line of iPSC-derived cardiomyocytes). Described as above. The following applies: exposure time: 90 min. Here is the method:
as §1
The molecule `NC(=O)C(F)(F)C(F)(F)C(F)(F)C(F)F` displayed a POD vs vehicle of more than 100 µM.
Molecule `OCC(O)CC(F)(F)C(F)(F)C(F)(F)C(F)(F)C(F)(F)C(F)(F)C(F)(F)C(F)(F)F` (centres undefined) [1-(Perfluorofluorooctyl)propane-2,3-diol] had a POD vs vehicle of more than 100 µM.
Still for that read-out and setting: to `CC(O)C(F)(F)C(F)(F)F` (centres undefined) [1-Pentafluoroethylethanol] belongs more than 100 µM; to `OCC(F)(F)C(F)(F)C(F)(F)C(F)F` [1H,1H,5H-Perfluoropentanol], more than 100 µM.
The same measure, in the same setting: as for `O=S(=O)(OCC(F)(F)F)C(F)(F)C(F)(F)C(F)(F)C(F)(F)F` [2,2,2-Trifluoroethyl_perfluorobutanesulfonate], the figure is more than 100 µM.
Same read-out and setting: as for `O=C(O)C(F)(F)C(F)(F)C(F)F` [2,2,3,3,4,4-Hexafluorobutanoic_acid], the figure is more than 100 µM; as for `NC(O)(C(F)(F)F)C(F)(F)F` [2-Aminohexafluoropropan-2-ol], more than 100 µM.
`O=C(O)CCC(F)(F)C(F)(F)C(F)(F)C(F)(F)C(F)(F)F` [2H,2H,3H,3H-Perfluorooctanoic_acid] came in with a POD vs vehicle of more than 100 µM.
On the same count and under the same terms, to `O=C(O)C=C(C(F)(F)F)C(F)(F)F` [3,3-Bis(trifluoromethyl)-2-propenoic_acid] belongs more than 100 µM; to `O=C(O)C=CC(F)(C(F)(F)F)C(F)(F)F` [3-(Perfluoroisopropyl)-2-propenoic_acid], more than 100 µM.
In the case of `O=C(O)CCC(F)(F)C(F)(F)C(F)(F)C(F)(F)C(F)(F)C(F)(F)C(F)(F)F` [3-Perfluoroheptylpropanoic_acid], the POD vs vehicle was more than 100 µM.
The same measure, in the same setting: to `O=C(O)CCC(F)(F)C(F)(F)C(F)(F)F` [3:3 Fluorotelomer carboxylic acid] belongs more than 100 µM.
The same measure, in the same setting: as for `O=C(CC(=O)C(F)(F)C(F)(F)F)C(F)(F)F` [3H,3H-Perfluoro-2,4-hexanedione], the figure is more than 100 µM; as for `OCCC(F)(F)C(F)(F)C(F)(F)C(F)(F)F` [4:2 Fluorotelomer alcohol], more than 100 µM; as for `O=S(=O)(O)CCC(F)(F)C(F)(F)C(F)(F)C(F)(F)F` [4:2 Fluorotelomer sulfonic acid], more than 100 µM.
The same measure, in the same setting: as for `O=C([O-])C(F)(F)C(F)(F)C(F)(F)C(F)(F)C(F)(F)C(F)(F)C(F)(F)F.[NH4+]` [Ammonium_perfluorooctanoate], the figure is more than 100 µM; as for `OCC(F)(F)OC(F)(F)C(F)(F)OC(F)(F)C(F)(F)OC(F)(F)F` [Fluorinated_triethylene_glycol_monomethyl_ether], more than 100 µM; as for `CN(CCO)S(=O)(=O)C(F)(F)C(F)(F)C(F)(F)C(F)(F)C(F)(F)C(F)(F)C(F)(F)C(F)(F)F` [N-Methyl-N-(2-hydroxyethyl)perfluorooctanesulfonamide], more than 100 µM.
The molecule `O=S(=O)(O)C(F)(F)C(F)(F)C(F)(F)C(F)(F)F` [Perfluorobutanesulfonic_acid] returned a POD vs vehicle of more than 100 µM.
Same read-out and setting: as for `O=C(O)C(F)(F)C(F)(F)C(F)(F)C(F)(F)C(F)(F)C(F)(F)C(F)(F)C(F)(F)C(F)(F)C(F)(F)F` [Perfluoroundecanoic_acid], the figure is more than 100 µM.

A further test deals with 1535 (donor line of iPSC-derived cardiomyocytes). Described as above. The following applies: exposure time: 90 min. Here is the method: as §1
Molecule `NC(=O)C(F)(F)C(F)(F)C(F)(F)C(F)F` registered a POD vs vehicle of more than 100 µM.
